Data reported in paper PMC4313523, “Decolorization of Anthraquinonic Dyes from Textile Effluent Using Horseradish Peroxidase: Optimization and Kinetic Study” (The Scientific World Journal, 2015).
Where two headings read alike, the source gives them in different places.

Legend:
[1] = system: T1, horseradish peroxidase (HRP); assay: dye decolorization initial rates, fit to ping-pong bi-bi model with dye inhibition; type: biochemical; settings: substrate inhibition (dead-end complex)
T1 construct: gene PRXC1A; commercial enzyme from Sigma-Aldrich, 250 purpurogallin units per mg
Excerpt: dye decolorization initial rates, fit to ping-pong bi-bi model with dye inhibition on horseradish peroxidase (HRP)

[2] = system: T1, horseradish peroxidase (HRP); assay: dye decolorization initial rates, fit to ping-pong bi-bi model with H2O2 inhibition (best fit); type: biochemical; settings: read-out: Hydrogen peroxide inhibition

Row | Compound | Dye inhibition ([1]; H2O2 fixed at 0.06 mM, dye 0.012-0.043 mM, pH 5.25, 24 °C, 0.15 IU/mL HRP, R2 0.9225) [mM] | Km ([2]; co-substrate H2O2 varied at dye 0.018 mM, pH 5.25, 24 °C, 0.15 IU/mL HRP, R2 0.9902) [µM] | Dye inhibition ([1]; H2O2 fixed at 0.1 mM, dye 0.015-0.051 mM, pH 5.5, 24 °C, 0.04 IU/mL HRP, R2 0.9602) [mM] | Km ([2]; co-substrate H2O2 varied at dye 0.029 mM, pH 5.5, 24 °C, 0.04 IU/mL HRP, R2 0.9908) [µM]
1 | C.I. Acid Violet 109 [AV 109] | 0.0080 | 330 |  | 
2 | Cc1cc(C)c(Nc2cc(S(=O)(=O)O)c(N)c3c2C(=O)c2ccccc2C3=O)c(C)c1NC(=O)C(Br)=CBr [AB 225, C.I. Acid Blue 225] |  |  | 0.0126 | 152
